# Starred links: 1 amine or outer side, 2 acyl side, 3 side chain; linkers in the order of their positions; H or OH if unused. Positions of bridges follow the written chain, without caps; N, C: chain ends. Non-standard residues stand in square brackets, D forms with d. Residues, ends and D or L forms follow the SMILES beside them. Phe(3-(4R-CO-2-thiazolinyl)) = O=C([C@H](Cc1cccc(C2=N[C@H](C(=O)[*:3])CS2)c1)N[*:1])[*:2]; dCha = N[C@H](CC1CCCCC1)C(=O)O
# Key:
# [1] = Metabolic stability of cyclic peptides in human liver microsomes (HLM residual rate); assay type: in vitro ADME; details: 1 μmol/L, human liver microsomes 0.5 mg protein/mL, 37° C., 20 minutes, NADPH and UDPGA
# Procedure: Test of metabolic stability of cyclic peptide in human liver microsome
# An experiment using human liver microsomes (HLMs) was carried out in order to compare and examine the metabolic stability of the synthesized cyclic peptides.
# The compound with a final concentration of 1 μmol/L was incubated in human liver microsomes (BD Cat #452117) prepared to a final concentration of 0.5 mg protein/mL using 100 mmol/L phosphate buffer (pH 7.4) at 37° C. for 20 minutes in the presence of reduced nicotinamide adenine dinucleotide phosphate (NADPH) and uridine 5′-diphosphate-α-D-glucuronic acid (UDPGA). Deproteinization treatment with acetonitrile was carried out, the amount of unaltered substance remaining was quantified using LC/MS/MS, and the residual rate (%) in 20 minutes was calculated. The HLM residual rate (%) obtained by this method is described in the following table.
# Evaluation standards are as follows.
# [2] = Membrane permeability of synthesized cyclic peptides by PAMPA (Measurement Method A: 1 μmol/L; Method B: 10 μmol/L); assay type: in vitro ADME; details: Measurement method A, 25° C., 4 hours
HLM residual rate [1],Pe(10^−6 cm/sec) [2],SMILES
+++ (60%<HLM residual rate (%)),++ (0.2<Pe (10^−6 cm/s)≤0.5),COc1cc2cnc1C1=N[C@@H](CS1)C(=O)N1CCC[C@H]1C(=O)N[C@H](CC1CCCCC1)C(=O)N[C@@H](Cc1c[nH]c3ccccc13)C(=O)N[C@@H](CCCNC(=N)N)C(=O)N[C@H](C(N)=O)C2 [2-22]
+++ (60%<HLM residual rate (%)),+++ (0.5<Pe (10^−6 cm/s)),N=C(N)NCCC[C@@H]1NC(=O)[C@H](Cc2c[nH]c3ccccc23)NC(=O)[C@@H](CC2CCCCC2)NC(=O)[C@@H]2CCCN2C(=O)[C@@H]2CSC(=N2)c2cc3cc(ccc3[nH]2)C[C@@H](C(N)=O)NC1=O [3-2]
+++ (60%<HLM residual rate (%)),+++ (0.5<Pe (10^−6 cm/s)),N=C(N)NCCC[C@@H]1NC(=O)[C@H](Cc2c[nH]c3ccccc23)NC(=O)[C@@H](CC2CCCCC2)NC(=O)[C@@H]2CCCN2C(=O)[C@@H]2CSC(=N2)c2cccc(c2)C[C@@H](C(N)=O)NC1=O [3-4] (P[dCha]WR[Phe(3-(4R-CO-2-thiazolinyl))]-NH2; lactam N-5)
+++ (60%<HLM residual rate (%)),+++ (0.5<Pe (10^−6 cm/s)),N=C(N)NCCCC1NC(=O)[C@H](Cc2c[nH]c3ccccc23)NC(=O)[C@@H](CC2CCCCC2)NC(=O)[C@@H]2CCCN2C(=O)c2csc(n2)-c2cccc(c2)C[C@@H](C(N)=O)NC1=O (stereo partly drawn) [6-1]
+ (HLM residual rate (%)≤40%),+ (0.01<Pe (10^−6 cm/s)≤0.2),C[C@@H]1NC(=O)CSC[C@@H](C(N)=O)NC(=O)[C@H](CCCNC(=N)N)NC(=O)[C@H](Cc2c[nH]c3ccccc23)NC(=O)[C@@H](CC2CCCCC2)NC(=O)[C@@H]2CCCN2C1=O [7-1] ({CH2CO}-AP[dCha]WRC-NH2; thioether N-6)
+ (HLM residual rate (%)≤40%),+ (0.01<Pe (10^−6 cm/s)≤0.2),CC(=O)N[C@H]1CSSC[C@@H](C(N)=O)NC(=O)[C@H](CCCNC(=N)N)NC(=O)[C@H](Cc2c[nH]c3ccccc23)NC(=O)[C@@H](CC2CCCCC2)NC(=O)[C@@H]2CCCN2C1=O [9-1] (Ac-CP[dCha]WRC-NH2; disulfide 1-6)
